17 compounds from patent US20250084084A1, “Crystalline form of (2R)-2-(5-fluoro-2-methoxypyridin-4-yl)-1-[(2S)-7-methyl-6-(pyrimidin-2-yl)-3,4-dihydro-1H-spiro[1,8-naphthyridine-2,3-pyrrolidin]-1-yl]propan-1-one” (Pfizer Inc., priority 2020, published 2025) can be followed below.

This assay addresses α-melanocyte-stimulating hormone receptor (hMC4R) (Homo sapiens (Human), UniProt P32245). Nature of the assay: In vitro binding affinity assay using hMC4R (radioligand competition binding, [125I]-(Nle4, D-Phe7)-α-MSH). The settings on record: geometric mean, read-out: Ki (nM) geometric. Here is the method:
The binding affinity of test compounds at the α-melanocyte-stimulating hormone receptor (hMC4R) was assessed using a radioligand competition binding assay. Recombinant Chinese hamster ovaries (CHO) cells stably expressing hMC4R (PerkinElmer #ES-191-C) were used for competitive binding. hMC4R membranes were grown in Dulbecco's Modified Essential Medium and Ham's F-12 Medium (DMEM/F12), 10% heat inactivated fetal bovine serum (FBS), 0.4 mg/mL Geneticin and 2 mM L-glutamine. Cell membranes were bulked and frozen until the assay was performed.
Compounds were solubilized in 100% dimethyl sulfoxide (DMSO) to a concentration of 30 mM. A 10-point intermediate dilution series using half log dilutions was created in 100% DMSO with a top concentration of 0.03 mM. The serially diluted compounds were spotted as 1 μL/well, in 96-well Costar 3363 plates. The final compound range in the assay was 300 nM to 0.01 nM with a final DMSO concentration of 1%. Control wells, containing 1 μL of 2 mM ([…]) alpha-melanocyte stimulating hormone (α-MSH-Tocris #2584) was added to the non-specific binding wells and 1 μL 100% DMSO for the total binding control wells. […] The exact concentration of radioligand used for each experiment was determined by liquid scintillation counting and adjusted if necessary.
Frozen hMC4R cell membranes were thawed and Dounce homogenized. Homogenates were resuspended in assay buffer to a concentration of 2 μg per well. […] The plates were incubated for 2 hours at room temperature. Assay samples were then rapidly filtered through Unifilter-96 GF/B PEI coated filter plates using a filter plate harvester (PerkinElmer) and rinsed with ice-cold wash buffer [25 mM (4-(2-hydroxyethyl)-1-piperazineethanesulfonic acid (HEPES), 1 mM MgCl2, 2.5 mM CaCl2, and 500 mM NaCl]. Filter plates were dried overnight at room temperature. Plates were then bottom-sealed prior to the addition of 50 μL/well Ultima Gold XR scintillation fluid (PerkinElmer 6013111). Plates were then top-sealed, incubated for 60 minutes at room temperature and then the amount of radioactivity present was determined by liquid scintillation counting on a Microbeta Trilux (PerkinElmer #2450-0060).
The raw data (expressed as counts per minute) were analyzed using ActivityBase (IDBS Data Management Software). […] Equilibrium dissociation constant for inhibitor of ligand and receptor interaction (Ki) values were then calculated from the IC50 values using the Cheng-Prusoff equation: Ki=IC50/(1+([L]/Kd)), where [L] is the concentration of the radioligand used in the experiment and Kd is the affinity of the radioligand (determined in separate saturation experiments).

Broadly, the Ki is the equilibrium dissociation constant of an inhibitor or competing ligand from its target.

Chain of α-melanocyte-stimulating hormone receptor (hMC4R) (P32245 whole entry): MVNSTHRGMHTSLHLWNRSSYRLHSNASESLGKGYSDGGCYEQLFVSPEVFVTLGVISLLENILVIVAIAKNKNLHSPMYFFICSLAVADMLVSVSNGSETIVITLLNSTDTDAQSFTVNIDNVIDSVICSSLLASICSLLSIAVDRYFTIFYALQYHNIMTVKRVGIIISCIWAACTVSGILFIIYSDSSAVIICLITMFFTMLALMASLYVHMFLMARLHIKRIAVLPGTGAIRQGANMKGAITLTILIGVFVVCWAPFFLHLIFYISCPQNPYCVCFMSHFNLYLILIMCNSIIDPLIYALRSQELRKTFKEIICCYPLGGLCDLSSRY

For the compound `Cc1nc2c(cc1-c1nc(C(F)F)n(C)n1)CC[C@@]1(CCN(C(=O)Cc3ccc(F)c(F)c3)C1)N2` [Example 121, 1-{(2S)-6-[5-(difluoromethyl)-1-methyl-1H-1,2,4-triazol-3-yl]-7-methyl-3,4-dihydro-1H-spiro[1,8-naphthyridine-2,3′-pyrrolidin]-1′-yl}-2-(3,4-difluorophenyl)ethan-1-one], the Ki stood at 0.49 nM.

Regarding `COc1cc([C@@H](C)C(=O)N2CC[C@@]3(CCc4cc(-c5nc(C(F)F)n(C)n5)c(C)nc4N3)C2)c(F)cn1` [Example 122, (2R)-1-{(2S)-6-[5-(difluoromethyl)-1-methyl-1H-1,2,4-triazol-3-yl]-7-methyl-3,4-dihydro-1H-spiro[1,8-naphthyridine-2,3′-pyrrolidin]-1′-yl}-2-(5-fluoro-2-methoxypyridin-4-yl)propan-1-one], the inhibition constant (Ki) is 0.49 nM.

As to `COc1cc([C@@H](C)C(=O)N2CC[C@@]3(CCc4cc(C5CCOCC5)c(C)nc4N3)C2)c(F)cn1` [Example 131, (2R)-2-(5-fluoro-2-methoxypyridin-4-yl)-1-[(2S)-7-methyl-6-(oxan-4-yl)-3,4-dihydro-1H-spiro[1,8-naphthyridine-2,3′-pyrrolidin]-1′-yl]propan-1-one], the Ki turned out to be 5.8 nM.

For `COc1cc([C@@H](C)C(=O)N2CC[C@@]3(CCc4cc(-c5cn(C(F)F)c(C)n5)c(C)nc4N3)C2)c(F)cn1` [Example 138, (2R)-1-{(2S)-6-[1-(difluoromethyl)-2-methyl-1H-imidazol-4-yl]-7-methyl-3,4-dihydro-1H-spiro[1,8-naphthyridine-2,3′-pyrrolidin]-1′-yl}-2-(5-fluoro-2-methoxypyridin-4-yl)propan-1-one], the Ki stood at 0.9 nM.

On to `COc1cc([C@@H](C)C(=O)N2CC[C@@]3(CCc4cc(-c5ccc(F)cn5)c(C)nc4N3)C2)c(F)cn1` [Example 139, (2R)-2-(5-fluoro-2-methoxypyridin-4-yl)-1-[(2S)-6-(5-fluoropyridin-2-yl)-7-methyl-3,4-dihydro-1H-spiro[1,8-naphthyridine-2,3′-pyrrolidin]-1′-yl]propan-1-one], for which the Ki came out at 13 nM.

Turning to `COc1cc([C@@H](C)C(=O)N2CC[C@@]3(CCc4cc(-c5ccccn5)c(C)nc4N3)C2)c(F)cn1` [Example 140, (2R)-2-(5-fluoro-2-methoxypyridin-4-yl)-1-[(2S)-7-methyl-6-(pyridin-2-yl)-3,4-dihydro-1H-spiro[1,8-naphthyridine-2,3′-pyrrolidin]-1′-yl]propan-1-one], the inhibition constant Ki stood at 6.3 nM.

Turning to `COc1cc([C@@H](C)C(=O)N2CC[C@@]3(CCc4cc(-c5ccnnc5)c(C)nc4N3)C2)c(F)cn1` [Example 141, (2R)-2-(5-fluoro-2-methoxypyridin-4-yl)-1-[(2S)-7-methyl-6-(pyridazin-4-yl)-3,4-dihydro-1H-spiro[1,8-naphthyridine-2,3′-pyrrolidin]-1′-yl]propan-1-one], the Ki is 14 nM.

In the case of `COc1cc([C@@H](C)C(=O)N2CC[C@@]3(CCc4cc(-c5nccc(C(F)(F)F)n5)c(C)nc4N3)C2)c(F)cn1` [Example 143, (2R)-2-(5-fluoro-2-methoxypyridin-4-yl)-1-{(2S)-7-methyl-6-[4-(trifluoromethyl)pyrimidin-2-yl]-3,4-dihydro-1H-spiro[1,8-naphthyridine-2,3′-pyrrolidin]-1′-yl}propan-1-one], the Ki is 1.3 nM.

Regarding `COc1cc([C@@H](C)C(=O)N2CC[C@@]3(CCc4cc(-c5ncc(Cl)cn5)c(C)nc4N3)C2)c(F)cn1` [Example 144, (2R)-1-[(2S)-6-(5-chloropyrimidin-2-yl)-7-methyl-3,4-dihydro-1H-spiro[1,8-naphthyridine-2,3′-pyrrolidin]-1′-yl]-2-(5-fluoro-2-methoxypyridin-4-yl)propan-1-one], the inhibition constant Ki was 2 nM.

On to `COc1cc([C@@H](C)C(=O)N2CC[C@@]3(CCc4cc(-c5ncc(C(F)(F)F)cn5)c(C)nc4N3)C2)c(F)cn1` [Example 145, (2R)-2-(5-fluoro-2-methoxypyridin-4-yl)-1-{(2S)-7-methyl-6-[5-(trifluoromethyl)pyrimidin-2-yl]-3,4-dihydro-1H-spiro[1,8-naphthyridine-2,3′-pyrrolidin]-1′-yl}propan-1-one], for which the inhibition constant Ki was 8.7 nM.

As to `COc1cc([C@@H](C)C(=O)N2CC[C@@]3(CCc4cc(-c5ncc(F)cn5)c(C)nc4N3)C2)c(F)cn1` [Example 146, (2R)-2-(5-fluoro-2-methoxypyridin-4-yl)-1-[(2S)-6-(5-fluoropyrimidin-2-yl)-7-methyl-3,4-dihydro-1H-spiro[1,8-naphthyridine-2,3′-pyrrolidin]-1′-yl]propan-1-one], the Ki came to 1.2 nM.

With `COc1cc([C@@H](C)C(=O)N2CC[C@@]3(CCc4cc(-c5nc6n(n5)CCC6(F)F)c(C)nc4N3)C2)c(F)cn1` [Example 147, (2R)-1-[(2S)-6-(7,7-difluoro-6,7-dihydro-5H-pyrrolo[12-b][1,2,4]triazol-2-yl)-7-methyl-3,4-dihydro-1H-spiro[1,8-naphthyridine-2,3′-pyrrolidin]-1′-yl]-2-(5-fluoro-2-methoxypyridin-4-yl)propan-1-one], the inhibitory constant (Ki) is 0.62 nM.

As to `COc1cc([C@@H](C)C(=O)N2CC[C@@]3(CCc4cc(-c5cnsc5)c(C)nc4N3)C2)c(F)cn1` [Example 150, (2R)-2-(5-fluoro-2-methoxypyridin-4-yl)-1-[(2S)-7-methyl-6-(1,2-thiazol-4-yl)-3,4-dihydro-1H-spiro[1,8-naphthyridine-2,3′-pyrrolidin]-1′-yl]propan-1-one], the inhibition constant Ki is 3.9 nM.

Regarding `COc1cc([C@@H](C)C(=O)N2CC[C@@]3(CCc4cc(-c5cnc(C)nc5)c(C)nc4N3)C2)c(F)cn1` [Example 151, (2R)-2-(5-fluoro-2-methoxypyridin-4-yl)-1-[(2S)-7-methyl-6-(2-methylpyrimidin-5-yl)-3,4-dihydro-1H-spiro[1,8-naphthyridine-2,3′-pyrrolidin]-1′-yl]propan-1-one], the Ki is 23 nM.

As to `COc1cc([C@@H](C)C(=O)N2CC[C@@]3(CCc4cc(-c5cccc(-c6nnc(C)o6)n5)c(C)nc4N3)C2)c(F)cn1` [Example 152, (2R)-2-(5-fluoro-2-methoxypyridin-4-yl)-1-{(2S)-7-methyl-6-[6-(5-methyl-1,3,4-oxadiazol-2-yl)pyridin-2-yl]-3,4-dihydro-1H-spiro[1,8-naphthyridine-2,3′-pyrrolidin]-1′-yl}propan-1-one], the Ki came to 2.5 nM.

In the case of `COc1cc([C@@H](C)C(=O)N2CC[C@@]3(CCc4cc(-c5cnc(C)s5)c(C)nc4N3)C2)c(F)cn1` [Example 153, (2R)-2-(5-fluoro-2-methoxypyridin-4-yl)-1-[(2S)-7-methyl-6-(2-methyl-1,3-thiazol-5-yl)-3,4-dihydro-1H-spiro[1,8-naphthyridine-2,3′-pyrrolidin]-1′-yl]propan-1-one], the inhibitory constant (Ki) came to 3.3 nM.

Turning to `COc1cc([C@@H](C)C(=O)N2CC[C@@]3(CCc4cc(-c5cnn6cccnc56)c(C)nc4N3)C2)c(F)cn1` [Example 154, (2R)-2-(5-fluoro-2-methoxypyridin-4-yl)-1-[(2S)-7-methyl-6-(pyrazolo[1,5-a]pyrimidin-3-yl)-3,4-dihydro-1H-spiro[1,8-naphthyridine-2,3′-pyrrolidin]-1′-yl]propan-1-one], the inhibition constant Ki is 0.72 nM.
